Laboratory results as given in patent publication US20030153611A1, “1,3-Diarylprop-2-en-1-ones, compositions containing them and use thereof” (AVENTIS PHARMA S.A., priority 2001, published 2003).
Where a name gives a salt, the structure may show the parent alone.

How the values were obtained:
Tubulin = biological target: T1, Tubulin (Sus scrofa, UniProt P02550+P02554); assay: Assessment of the inhibition of tubulin polymerization (turbidimetry); type: biochemical, pig; conditions: tubulin 10 μM, turbidity at 350 nm, 37° C.
T1 construct: Tubulin is purified from pig brains according to the published methods; from tissue; host or cells: pig brain
Experimental: Tubulin is purified from pig brains according to the published methods (Shelanski et al., 1973, Proc. Natl, Acad. Sci. USA, 70, 765-768. Weingarten et al., 1975, Proc. Natl, Acad. Sci. USA, 72, 1858-1862). Briefly, the brains are ground and centrifuged in an extraction buffer. The tubulin, contained in the extract supernatant, is subjected to two successive cycles of polymerization at 37° C. and depolymerization at 4° C., before being separated from the MAPs (Microtubule Associated Proteins) by chromatography on a phosphocellulose P11 column (Whatman). The tubulin thus isolated is more than 95% pure. It is stored in a buffer known as RB/2 30% glycerol, the composition of which is MES-NaOH [2-(N-morpholino)ethanesulfonic acid] 50 mM, pH 6.8; MgCl2 0.25 mM; EGTA 0.5 mM; 30% glycerol (v/v), GTP (guanosine 5′-triphosphate) 0.2 mM.
The polymerization of the tubulin into microtubules is monitored by turbidimetry as follows; the tubulin is adjusted to a concentration of 10 μM (1 mg/ml) in the RB/2 30% glycerol buffer, to which is added 1 mM GTP and 6 mM MgCl2. The polymerization is initiated by increasing the temperature from 6° C. to 37° C. in a cuvette with a 1 cm optical pathlength, placed in a Uvikon 931 spectrophotometer (Kontron) equipped with a thermostatically-regulated cuvette holder. The increase in the turbidity of the solution is monitored at 350 nm.
The products are dissolved at 10 mM in DMSO and added at variable concentrations (0.5 to 10 μM) to the tubulin solution before polymerization. The IC50 value is defined as the concentration of product which inhibits 50% of the rate of polymerization. A product whose IC50 value is less than or equal to 3 μM is considered as very active.

HDMEC cells = assay: Detachment effect on HDMEC endothelial cells; type: cell-based, Human; conditions: treatment for two hours
From the text: A test to determine the detachment of endothelial cells was established in order to select the products on the basis of their “in vitro” activity. This test for determining the endothelial cell detachment is characterized in that the endothelial cells, inoculated in plates which are coated at the bottom with a binder, e.g., chosen from gelatin, fibronectin or vitronectin, after culturing, are supplemented with a medium containing the test compound, and the cells are then labeled with a fluorescent substance, the cells which become detached are removed by washing and the fluorescence of the remaining cells is counted in a fluorimeter.
This test consists in measuring the detachment of endothelial cells cultured on substrates based on a binder, e.g., chosen from fibronectin, vitronectin and gelatin. One day after inoculating the cells in plates containing 96 wells, for example, the culture medium is replaced with a medium containing the test compound in the absence of serum. The same preparation is prepared six times at three different concentrations ([…]) and the control without addition of antivascular product is prepared six times. After treatment for two hours with the test substance, the cells are labeled with calcein-AM (1.6 μg/ml) in a culture medium supplemented with 0.1% BSA. The cells which become detached are removed by washing with the culture medium containing 0.1% bovine serum albumin; 100 μl of medium are added to each well. The fluorescence of the remaining cells is counted in a fluorimeter. The data obtained are expressed relative to the control (untreated cells).
(§1) The assessment of the detachment of the endothelial cells in vitro is determined in the following way. HDMEC cells (Human Dermal Microvascular Endothelial Cells, Promocell, c-122102) are cultured in an ECGM-MV medium containing 5% fetal calf serum, growth factors (EGF 10 ng/ml, hydrocortisone 1 μg/ml, 0.4% growth supplement with heparin) and antibiotics (amphotericin 50 ng/ml, gentamicin 50 μg/ml). For the detachment test, the HDMECs are inoculated at a rate of 5 000 cells in clear-bottomed 96-well plates (Costar) precoated with fibronectin (10 μg/ml) or vitronectin (1 μg/ml) or gelatin. Twenty-four hours later, the culture medium is replaced with 0.1% BSA ECGM-MV medium containing the indicated products. The test concentrations are 0.1-0.3 and 1 μM for each product. After treatment for two hours, the cells are labeled for 1 hour with calcein (1.6 μg/ml, Molecular Probes) in 0.1% BSA ECGM-MV medium. The detached cells are then removed by washing with 0.1% BSA ECGM-MV medium; 100 μl of medium are added to each well. The fluorescence of the cells which remain attached to the substratum of the well is counted using a fluorimeter, Spectrafluor Plus (Tecan, excitation at 485 nm, and emission at 535 nm). The data are the average of six different samples and are expressed as a percentage of the control (untreated cells).
A cell detachment effect of greater than or equal to 15% is considered as significant.
as §1, with “(amphotericine” for “(amphotericin”, “The detached cells are then removed by washing with 0.1% BSA ECGM-MV medium; 100 μl of medium are added to each well. The fluorescence of the cells which remain attached to the substratum of the well is counted using a fluorimeter, Spectrafluor Plus (Tecan, excitation at 485 nm, and emission at 535 nm). The data are the average of six different samples and are expressed as a percentage of the control (untreated cells).” left out

HeLa cells = assay: Inhibition of proliferation of HeLa cells ([14C]-thymidine incorporation); type: cell-based; conditions: Homo sapiens, incubation for 48 hours, read-out: Inhibition of cell proliferation IC50 HeLa
Experimental: The proliferation of HeLa cells is assessed by measuring the incorporation of [^14C]-thymidine in the following way. The HeLa cells (epithelial tumor cells of human origin) are cultured in a DMEM medium (Gibco) which contains 10% fetal calf serum and antibiotics (1% penicillin, 1% streptomycin). To carry out the proliferation test, the cells are inoculated into 96-well cytostar microplates (Amersham), at a rate of 5 000 cells per well. [^14C]-thymidine (0.1 μCi/well) and the products to be assessed are then added. Variable concentrations of products up to 10 μM are used; the DMSO (solvent used to dissolve the products) should not exceed 0.5% in the medium. After incubation for 48 hours at 37° C., the radioactivity incorporated into the cells is measured by counting the plate in a TRI-LUX counter (Wallac). The IC50 value is defined as the concentration of product which reduces the radioactivity by 50% relative to an untreated control. A product whose IC50 value is less than 1 μM is considered as cytotoxic.

HDMEC = assay: Inhibition of cell proliferation, HDMEC; type: cell-based; conditions: Homo sapiens

T1 sequence (P02550 whole entry): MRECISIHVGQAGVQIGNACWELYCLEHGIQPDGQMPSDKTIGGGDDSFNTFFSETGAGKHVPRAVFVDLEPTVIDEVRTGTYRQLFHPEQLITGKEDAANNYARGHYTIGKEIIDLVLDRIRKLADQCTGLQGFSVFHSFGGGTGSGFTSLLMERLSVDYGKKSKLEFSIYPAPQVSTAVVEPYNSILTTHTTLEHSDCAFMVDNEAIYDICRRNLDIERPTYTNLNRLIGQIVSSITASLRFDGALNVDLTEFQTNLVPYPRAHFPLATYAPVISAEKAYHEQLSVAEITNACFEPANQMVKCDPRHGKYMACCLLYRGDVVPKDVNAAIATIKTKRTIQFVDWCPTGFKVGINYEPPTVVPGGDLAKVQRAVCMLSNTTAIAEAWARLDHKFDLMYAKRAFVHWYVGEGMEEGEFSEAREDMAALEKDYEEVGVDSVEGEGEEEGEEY
T1 sequence (P02554 whole entry): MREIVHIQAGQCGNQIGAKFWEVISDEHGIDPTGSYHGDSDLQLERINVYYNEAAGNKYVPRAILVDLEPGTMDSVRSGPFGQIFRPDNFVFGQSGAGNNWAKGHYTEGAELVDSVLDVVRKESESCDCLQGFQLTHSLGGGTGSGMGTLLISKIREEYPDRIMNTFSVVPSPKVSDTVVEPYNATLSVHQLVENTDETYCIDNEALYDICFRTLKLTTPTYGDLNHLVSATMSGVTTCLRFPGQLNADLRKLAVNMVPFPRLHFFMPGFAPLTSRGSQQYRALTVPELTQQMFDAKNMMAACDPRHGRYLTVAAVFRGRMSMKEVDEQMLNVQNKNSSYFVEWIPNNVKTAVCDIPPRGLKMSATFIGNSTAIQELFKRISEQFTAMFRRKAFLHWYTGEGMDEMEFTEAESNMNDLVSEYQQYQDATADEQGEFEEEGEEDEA

## COc1ccc(/C=C(\Br)C(=O)c2cc(OC)c(OC)c(OC)c2)cc1N [Example 4, E-3-(3-Amino-4-methoxyphenyl)-2-bromo-1-(3,4,5-trimethoxyphenyl)propenone]
Tubulin
  IC50: 600 nM

## COc1ccc(OC)c(C(=O)/C(C)=C/c2ccc(OC)c(N)c2)c1.Cl [Example 3, E-3-(3-Amino-4-methoxyphenyl)-2-methyl-1-(2,5-dimethoxyphenyl)propenone hydrochloride]
HDMEC cells
  Percentage of detachment of HDMEC cells induced with the compound at a concentration of 0.1 μM: 31%
  Percentage of detachment of HDMEC cells induced with the compound at a concentration of 0.3 μM: 37%
  Percentage of detachment of HDMEC cells induced with the compound at a concentration of 1 μM: 34%
HeLa cells
  IC50: < 19 nM
Tubulin
  IC50: 500 nM
HDMEC
  IC50: < 19 nM

## COc1cc(C(=O)/C(C)=C/c2ccc3[nH]ccc3c2)cc(OC)c1OC [Example 19, E-2-Methyl-3-(1-H-indol-5-yl)-1-(3,4,5-trimethoxyphenyl)propenone]
Tubulin
  IC50: 800 nM

## COc1ccc(/C=C(\C)C(=O)c2cc(OC)c(OC)c(OC)c2)cc1N [Example 1, E-3-(3-Amino-4-methoxyphenyl)-2-methyl-1-(3,4,5-trimethoxyphenyl)propenone]
HDMEC cells
  Percentage of detachment of HDMEC cells induced with the compound at a concentration of 0.1 μM: 21-36%
  Percentage of detachment of HDMEC cells induced with the compound at a concentration of 0.3 μM: 18-38%
  Percentage of detachment of HDMEC cells induced with the compound at a concentration of 1 μM: 37-42%
HeLa cells
  IC50: 3.6 to 4.3 nM
Tubulin
  IC50: 300 nM
HDMEC
  IC50: 2.5 to 3.2 nM

## COc1cc(C(=NO)/C(C)=C/c2ccc3c(ccn3C)c2)cc(OC)c1OC (mixture of isomers) [Example 7, E-2-Methyl-3-(1-methyl-1-H-indol-5-yl)-1-(3,4,5-trimethoxyphenyl)propenoneoxime]
Tubulin
  IC50: 2000 nM
HDMEC
  IC50: 300 to 500 nM

## COc1cc(C(=O)/C(C)=C/c2ccc3c(ccn3C)c2)cc2c1OCO2 [Example 16, E-2-Methyl-3-(1-methyl-1-H-indol-5-yl)-1-(3-methoxy-4,5-methylenedioxyphenyl)propenone]
Tubulin
  IC50: 500 nM

## COc1ccc(/C=C(\C)C(=O)c2cc(OC)c(OC)c(OC)c2)cc1NC(=O)[C@@H](N)CCCNC(=N)N[N+](=O)[O-] [Example 11, 2-Amino-5-[3-(1-nitroguanidino)]-pentanoic acid {2-methoxy-5-[2-methyl-3-oxo-3-(3,4,5-trimethoxy-phenyl)propenyl]phenyl}amide hydrochloride]
HDMEC
  IC50: 400 nM

## COc1ccc(/C=C(\C)C(=O)c2cc(OC)c(OC)c(OC)c2)cc1NC(=O)[C@@H]1CCCN1C [Example 12, 1-Methylpyrrolidine-2-carboxylic acid {2-methoxy-5-[2-methyl-3-oxo-3-(3,4,5-trimethoxyphenyl)propenyl]phenyl}amide hydrochloride]
HDMEC
  IC50: 320 nM

## COc1cc(/C=C(\C)C(=O)c2cc(OC)c(OC)c(OC)c2)ccc1N [Example 2, E-3-(4-Amino-3-methoxyphenyl)-2-methyl-1-(3,4,5-trimethoxyphenyl)propenone]
HDMEC cells
  Percentage of detachment of HDMEC cells induced with the compound at a concentration of 0.1 μM: 16-21%
  Percentage of detachment of HDMEC cells induced with the compound at a concentration of 0.3 μM: 17-32%
  Percentage of detachment of HDMEC cells induced with the compound at a concentration of 1 μM: 31-49%
HeLa cells
  IC50: 39 to 104 nM
Tubulin
  IC50: 2500 nM
HDMEC
  IC50: 1.9 to 4 nM

## COc1cc(C(=N/O)/C(C)=C/c2ccc3c(ccn3C)c2)cc(OC)c1OC [Example 9, E-2-Methyl-3-(1-methyl-1-H-indol-5-yl)-1-(3,4,5-trimethoxyphenyl)propenone E-oxime]
Tubulin
  IC50: 3500 nM

## COc1cc(C(=O)/C(C)=C/c2ccc3c(ccn3CCN(C)C)c2)cc(OC)c1OC [Example 20, E-2-Methyl-3-[1-(2-dimethylaminoethyl)-1-H-indol-5-yl]-1-(3,4,5-trimethoxyphenyl)propenone hydrochloride]
Tubulin
  IC50: 2000 nM

## COc1ccc(/C=C(\C)C(=O)c2cc(OC)c(OC)c(OC)c2)cc1NC(=O)[C@@H](N)C(C)C [Example 15, (S)-2-Amino-3-methylbutanoic acid {2-methoxy-5-[2-methyl-3-oxo-3-(3,4,5-trimethoxy-phenyl)propenyl]phenyl}amide hydrochloride]
Tubulin
  IC50: 9000 nM
HDMEC
  IC50: 30 to 60 nM

## COc1cc(C(=O)/C(C)=C/c2ccc3c(ccn3CO)c2)cc(OC)c1OC [Example 21, E-2-Methyl-3-(1-hydroxymethyl-1-H-indol-5-yl)-1-(3,4,5-trimethoxyphenyl)propenone]
Tubulin
  IC50: 500 nM

## COc1cc(C(=N\O)/C(C)=C/c2ccc3c(ccn3C)c2)cc(OC)c1OC [Example 8, E-2-Methyl-3-(1-methyl-1-H-indol-5-yl)-1-(3,4,5-trimethoxyphenyl)propenone Z-oxime]
Tubulin
  IC50: 800 nM
